Assay results as given in patent publication US7135292B2, “Analysis and modification of gene expression in marine invertebrate cells” (Harbor Branch Oceanographic Institution, Inc., priority 2002, dated 2006).

Tested on: Axinella corrugata cell cultures
Test: Human-sequence microarray (Gene Filters) analysis of gene expression, PHA-treated vs untreated sponge cell cultures
Assay type: cell-based
Conditions: PHA treated/untreated, 12 h
Description: Sponge Cells. Cells were obtained from cryopreserved stocks at Harbor Branch Oceanographic Institution. All cells were derived from Axinella corrugata specimens collected in the waters of Florida, the Bahamas, and the Caribbean Sea, and were cryopreserved according to Pomponi et al. (Pomponi et al. 1997b supra). This sponge is relatively common and easy to collect, amenable to culture efforts, and produces the bioactive compound, stevensine, in vitro (Pomponi et al. 1997b supra). Enriched fractions of dissociated sponge cells were prepared, cryopreserved, and thawed according to previously published methods (Pomponi et al. 1997b supra). Cells were incubated at 22–25° C. in a growth medium consisting of a modified and supplemented commercial formulation (Willoughby and Pomponi 2000 supra). The length of the incubation period was based on my unpublished observation of elevated DNA and protein contents (9%, P=0.034, and 9%, P=0.038, respectively) in PHA-treated cultures, according to fluorescent assays of 6 replicate comparisons (Willoughby and Pomponi 2000 supra). Since the effects were observed between 6 and 18 hours after treatment, cells were cultured for 12-hour periods representing the center point of the period of observed changes. Two sets of cultures were incubated with approximately 2×10^8 cells per T-75 flask—a control set and an experimental set treated with 1.5% phytohemagglutinin (PHA) (Life Technologies, M-form).
RNA Isolation. RNA isolation was performed on unrinsed, pelleted cells. Pellets were quickly frozen in a dry ice alcohol bath and stored at −70° C. until RNA isolation. The Qiagen RNeasy® protocol was used, with the following modifications. Samples were disrupted with a micropestle or homogenized by the rotor-stator method, using twice the recommended volume of lysis solution. Prior to column loading, samples were centrifuged through a Qiashredder® column to complete homogenization and remove insoluble material. Supernatant was collected for use in the rest of the protocol. During the first wash step, samples were incubated on the column with DNase 1 (Qiagen or Ambion) for 15 minutes. After the final wash, samples were incubated on the column with the RNase free elution water for 15 minutes prior to elution. Sub-samples were diluted 20× and quantified on a Genequant® spectrophotometer.
cDNA Labeling. Sub-samples of the isolated total RNA (8 μl) were primed with oligo dT (10–20 mer) (Research Genetics, Inc.) for 10 minutes at 70° C., then briefly chilled on ice, followed by addition of 2 volumes of RT cocktail based upon the Life Technologies Superscript II® protocol (containing dATP, dGTP, dTTP, and α-^33P dCTP [NEN Easy Tides®, 3000 Ci/mmol]). The mixture was incubated for 90 minutes at 37° C., and diluted to 100 μl for purification on a Bio-Spin column (Boi-Rad) according to the Gene Filter® (Research Genetics, Inc.) recommended protocol. The resultant labeled probes were then denatured for 3 minutes in a boiling water bath prior to incorporation into the hybridization solution.
Microarrays. Research Genetics Gene Filters®, version 211, were employed in this study. These microarrays feature over 4000 distinct sequence-verified genes spotted onto a 5×7 cm nylon membrane. The DNA at each spot represents approximately 1 kb from the 3′ end of the gene. The microarrays also include spots of total genomic DNA (see FIG. 5). The 211 series is constructed from human sequences. A cross-referenced database listing of all the genes represented on the array is available at http://www.resgen.com. The 2 genes referenced in this work carry the I.M.A.G.E. Consortium (Lennon, G. G., C. Auffray, M. Polymeropoulos and M. B. Soares 1996, Genomics 33:151–152), Clone IDs 81408 (calcineurin B) and 858292 (cdc10).
Hybridization. […]

phytohemagglutinin [PHA]
Ratio, MHC class II DQ-beta associated with DR2, DQw1 protein (No. 1): 0.492
Ratio, Collagen, type II, alpha 1 (primary osteoarthritis, spondyloepiphyseal dysplasia, congenital) (No. 2): 0.384
Ratio, Hemoglobin, alpha 1 (No. 3): 0.157
Ratio, Heat shock 60 kD protein 1 (chaperonin) (No. 4): 2.443
Ratio, Interleukin 7 receptor (No. 5): 0.156
Ratio, Cytochrome P450, subfamily IVA, polypeptide 11 (No. 6): 0.310
Ratio, Human metallothionein I-B gene (No. 7): 0.388
Ratio, Homo sapiens NF-E2 protein (NF-E2) mRNA, complete cds (No. 8): 2.223
Ratio, Tissue inhibitor of metalloproteinase 1 (erythroid potentiating activity, collagenase inhibitor) (No. 9): 0.252
Ratio, Adenylate kinase 1 (No. 10): 0.055
Ratio, Oxytocin receptor (No. 11): 0.084
Ratio, Homo sapiens mRNA for epiregulin, complete cds (No. 12): 0.101
Ratio, Collagen, type V, alpha (No. 13): 0.137
Ratio, MpV17 transgene, murine homolog, glomerulosclerosis (No. 14): 0.319
Ratio, Tyrosine 3-monooxygenase/tryptophan 5-monooxygenase activation protein, zeta polypeptide (No. 15): 9.835
Ratio, Von Hippel-Lindau syndrome (No. 16): 2.707
Ratio, Homo sapiens TNF-alpha stimulated ABC protein (ABC50) mRNA, complete cds (No. 17): 3.865
Ratio, Human brain mRNA for photolyase homolog, complete cds (No. 18): 2.486
Ratio, Human BTG2 (BTG2) mRNA, complete cds (No. 19): 2.431
Ratio, Membrane metallo-endopeptidase (neutral endopeptidase, enkephalinase, CALLA, CD10) (No. 20): 0.169
Ratio, Calcineurin B (No. 21): 0.318
Ratio, Cell division cycle 10 (homologous to CDC10 of S. cerevisiae) (No. 22): 2.302
Ratio, Human renal cell carcinoma antigen RAGE-1 mRNA, complete putative cds (No. 23): 0.477
Ratio, Homo sapiens putative OSP like protein mRNA, partial cds (No. 24): 0.491
Ratio, H. sapiens mRNA for translin associated protein X (No. 25): 2.631
Ratio, H. sapiens mRNA for phosphate cyclase (No. 26): 0.395
Ratio, JNK activating kinase 1 (No. 27): 0.170
Ratio, Collagen, type IX, alpha 3 (No. 28): 47.686
Ratio, Non-catalytic region of tyrosine kinase (No. 29): 0.233
Ratio, Triosephosphate isomerase 1 (No. 30): 0.357
Ratio, Calreticulin Precursor (No. 31): 12.868
Ratio, Human transportin (TRN) mRNA, complete cds (No. 32): 3.328
Ratio, Fanconi anemia complementation group C (No. 33): 0.342
Ratio, Zinc finger protein basonuclin (No. 34): 0.417
Ratio, Autosomal dominant polycystic kidney disease type II (No. 35): 0.224
Ratio, Double-stranded RNA adenosine deaminase (No. 36): 0.456
Ratio, Dual specificity protein phosphatase PAC-1 (No. 37): 0.175
Ratio, Homo sapiens Tax interaction protein 33 mRNA, partial cds (No. 38): 0.426
Ratio, H. sapiens mRNA for M-phase phosphoprotein, mpp5 (No. 39): 2.970
Ratio, Nucleolysin TIA-1 (No. 40): 0.430
Ratio, Homo sapiens mRNA for ISLR, complete cds (No. 41): 12.597
Ratio, H. sapiens mRNA for M130 antigen (No. 42): 0.443
Ratio, Human tRNA-guanine transglycosylase mRNA, complete cds (No. 43): 0.213
Ratio, Homo sapiens mRNA for vesicle associated membrane protein 2 (VAMP2) (No. 44): 3.925
Ratio, Erythrocyte membrane protein band 4.9 (dematin) (No. 45): 0.408
Ratio, 6-Pyruvol tetrahydrobiopterin synthase (No. 46): 0.440
Ratio, Villin (No. 47): 0.008
Ratio, Multidrug reistance protein 1 (No. 48): 3.272
Ratio, Human histone H2B.1 mRNA, 3′ end (No. 49): 0.247
Ratio, Human heregulin-betal gene, complete cds (No. 50): 5.582
Ratio, Amyloid P component, serum (No. 51): 3.994
Ratio, Alternative guanine nucleotide-binding regulatory protein (G) alpha-inhibitory-subunit (No. 52): 0.462
Ratio, Ribosomal protein S6 kinase, 90 kD, polypeptide 2 (No. 53): 0.252
Ratio, Interleukin 15 receptor alpha chain (No. 54): 3.996
Ratio, Cadherin 11 (OB-cadherin) (No. 55): 0.425
